Laboratory results reported in patent US12404262B2 (priority 2021, dated 2025).
Converted amounts (≈) assume the structure as drawn.

Assays:
[1] = 1.0% DMSO, 24-hour incubation at ambient temperature, maximum theoretical 100 μM; for pH 2 solubility: 0.1N HCl, first value of the cell; for pH 7 solubility: 1×PBS buffer (pH 7.4), second value of the cell
[2] = Solubility in simulated intestinal fluids (FaSSIF/FeSSIF); conditions: 25 °C, thermodynamic from solid
[3] = fasted state simulated intestinal fluid (FaSSIF), fassif
[4] = fed state simulated intestinal fluid (FeSSIF), fessif

pH 2 solubility [1]	pH 7 solubility [1]	solubility [2, 3]	solubility [2, 4]	SMILES
3 μM	42 μM	1080 µg/mL (≈ 930 µM)	1590 µg/mL (≈ 1370 µM)	CC(C)(C#Cc1ccc(-c2ccc(Cl)c3c(N(C(=O)NC(CP(=O)(O)O)C(=O)O)S(C)(=O)=O)nn(CC(F)(F)F)c23)c([C@H](Cc2cc(F)cc(F)c2)NC(=O)Cn2nc(C(F)(F)F)c3c2C(F)(F)[C@@H]2C[C@H]32)n1)S(C)(=O)=O (stereo partly drawn) [Compound 56, 2-(3-(4-chloro-7-(2-((S)-1-(2-((3bS,4aR)-5,5-difluoro-3-(trifluoromethyl)-3b,4,4a,5-tetrahydro-1H-cyclopropa[3,4]cyclopenta[1,2-c]pyrazol-1-yl)acetamido)-2-(3,5-difluorophenyl)ethyl)-6-(3-methyl-3-(methylsulfonyl)but-1-yn-1-yl)pyridin-3-yl)-1-(2,2,2-trifluoroethyl)-1H-indazol-3-yl)-3-(methylsulfonyl)ureido)-3-phosphonopropanoic acid]
1 μM	81 μM	1580 µg/mL (≈ 1400 µM)	247 µg/mL (≈ 219 µM)	CC(C)(C#Cc1ccc(-c2ccc(Cl)c3c(N(C(=O)N[C@@H](CC(=O)O)C(=O)O)S(C)(=O)=O)nn(CC(F)(F)F)c23)c([C@H](Cc2cc(F)cc(F)c2)NC(=O)Cn2nc(C(F)(F)F)c3c2C(F)(F)[C@@H]2C[C@H]32)n1)S(C)(=O)=O [Compound 69, ((4-chloro-7-(2-((S)-1-(2-((3bS,4aR)-5,5-difluoro-3-(trifluoromethyl)-3b,4,4a,5-tetrahydro-1H-cyclopropa[3,4]cyclopenta[1,2-c]pyrazol-1-yl)acetamido)-2-(3,5-difluorophenyl)ethyl)-6-(3-methyl-3-(methylsulfonyl)but-1-yn-1-yl)pyridin-3-yl)-1-(2,2,2-trifluoroethyl)-1H-indazol-3-yl)(methylsulfonyl)carbamoyl)-L-aspartic acid]
13 μM	100 μM	448 µg/mL (≈ 419 µM)	454 µg/mL (≈ 424 µM)	CC(C)(C#Cc1ccc(-c2ccc(Cl)c3c(N(COC(=O)C(=O)O)S(C)(=O)=O)nn(CC(F)(F)F)c23)c([C@H](Cc2cc(F)cc(F)c2)NC(=O)Cn2nc(C(F)(F)F)c3c2C(F)(F)[C@@H]2C[C@H]32)n1)S(C)(=O)=O [Compound 20, 2-((N-(4-chloro-7-(2-((S)-1-(2-((3bS,4aR)-5,5-difluoro-3-(trifluoromethyl)-3b,4,4a,5-tetrahydro-1H-cyclopropa[3,4]cyclopenta[1,2-c]pyrazol-1-yl)acetamido)-2-(3,5-difluorophenyl)ethyl)-6-(3-methyl-3-(methylsulfonyl)but-1-yn-1-yl)pyridin-3-yl)-1-(2,2,2-trifluoroethyl)-1H-indazol-3-yl)methylsulfonamido)methoxy)-2-oxoacetic acid]
1 μM	100 μM	2020 µg/mL (≈ 1560 µM)	1470 µg/mL (≈ 1130 µM)	CN(CCN(CCC(=O)O)C(=O)OCOP(=O)(O)O)C(=O)N(c1nn(CC(F)(F)F)c2c(-c3ccc(C#CC(C)(C)S(C)(=O)=O)nc3[C@H](Cc3cc(F)cc(F)c3)NC(=O)Cn3nc(C(F)(F)F)c4c3C(F)(F)[C@@H]3C[C@H]43)ccc(Cl)c12)S(C)(=O)=O [Compound 86, 3-((2-(3-(4-chloro-7-(2-((S)-1-(2-((3bS,4aR)-5,5-difluoro-3-(trifluoromethyl)-3b,4,4a,5-tetrahydro-1H-cyclopropa[3,4]cyclopenta[1,2-c]pyrazol-1-yl)acetamido)-2-(3,5-difluorophenyl)ethyl)-6-(3-methyl-3-(methylsulfonyl)but-1-yn-1-yl)pyridin-3-yl)-1-(2,2,2-trifluoroethyl)-1H-indazol-3-yl)-1-methyl-3-(methylsulfonyl)ureido)ethyl)(((phosphonooxy)methoxy)carbonyl)amino)propanoic acid]
